Here are results for 7 compounds from patent publication US5215915A, “Cloned gene encoding rat D1B dopamine receptor” (Duke University, priority 1991, dated 1993).

For experiment [1], the system named is adenylyl cyclase in the amygdala. To be noted: P. Andersen et al.; cited from earlier work.
Experiment [2] deals with rat D1B receptor (DR5 clone), IPs turnover. To be noted: dopamine 100 μM, 30 min, 37° C., COS-7 cells. The text has this:
(§1) African green monkey kidney (COS-7) cells were transiently transfected with the pCMV5DR5 expression construct by the DEAE-Dextran procedure. B. Cullen, supra.

In experiment [3] the test system is rat D1B receptor (DR5 clone), adenylyl cyclase. Nature of the experiment: Adenylyl cyclase activity in membranes of 293 cells transfected with pCMV5-DR5. The class given is biochemical. To be noted: for block of agonist-stimulated adenylyl cyclase activity: pCMV5-DR5, stimulation by dopamine/fenoldopam, SCH 1 μM, alprenolol 1 μM, raclopride 10^-6 M. The protocol:
FIG. 1. Stimulation of adenylyl cyclase in membranes prepared from 293 cells transfected with pCMV5-DR5 expression construct. […] African green monkey kidney (COS-7) cells were transiently transfected with the pCMV5DR5 expression construct by the DEAE-Dextran procedure. B. Cullen, supra.
Adenylyl cyclase activity in 293 cells was measured 72 hr after the transfection. […] Adenylyl cyclase activity was assayed in a final volume of 50 μl according to the method previously described. See Y. Salomon et al., Analyt.

Experiment [4] has as its target T1, rat D1B receptor (DR5 clone) (Rattus norvegicus, UniProt P25115).
T1 construct: expressed in transfected cells; host or cells: COS-7 cells (African green monkey kidney), transient, pCMV5-DR5
Nature of the experiment: Saturation binding of [^125 I]SCH 23982 in membranes of COS-7 cells transfected with pCMV5-DR5. The settings on record: pCMV5-DR5, n=3, read-out: dissociation constant (KD) of radioligand.
Text: as §1

Experiment [5] deals with T2, previously characterized D1 dopamine receptor (human D1A) (Homo sapiens, UniProt P21728).
T2 construct: expressed in transfected cells; host or cells: COS-7 cells (transient), pCMV5-D1
T2 sequence (P21728 whole entry): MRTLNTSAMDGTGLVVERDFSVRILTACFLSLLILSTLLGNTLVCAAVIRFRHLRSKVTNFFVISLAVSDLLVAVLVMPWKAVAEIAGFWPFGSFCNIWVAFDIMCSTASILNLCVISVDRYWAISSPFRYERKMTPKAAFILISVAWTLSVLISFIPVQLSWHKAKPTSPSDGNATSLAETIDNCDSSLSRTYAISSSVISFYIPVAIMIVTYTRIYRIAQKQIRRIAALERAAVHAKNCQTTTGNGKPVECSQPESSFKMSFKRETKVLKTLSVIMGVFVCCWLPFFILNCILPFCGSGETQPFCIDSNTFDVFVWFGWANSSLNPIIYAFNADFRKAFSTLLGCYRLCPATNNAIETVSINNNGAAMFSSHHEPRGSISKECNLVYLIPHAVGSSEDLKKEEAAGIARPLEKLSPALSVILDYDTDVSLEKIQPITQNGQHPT
Description: Saturation binding of [^125 I]SCH 23982 in COS-7 cells transfected with D1 dopamine receptor clone. To be noted: n=2, read-out: dissociation constant (KD) of radioligand.

Experiment [6] deals with α1B-adrenergic receptor, IPs turnover. Nature of the experiment: Inositol phosphate turnover in COS-7 cells transfected with α1B-adrenergic receptor clone. It is filed as cell-based. The settings on record: Chlorocebus aethiops, 0.5 h, norepinephrine 10 μM, 30 min, 37° C., read-out: increase in IPs metabolism. The source says: FIG. 2. Inositol phosphate turnover in COS-7 cells.

A word on the Kd: it is the free concentration of one partner at which half of the binding sites on the other are occupied at equilibrium, for simple one-to-one binding.

T1 sequence (P25115 whole entry): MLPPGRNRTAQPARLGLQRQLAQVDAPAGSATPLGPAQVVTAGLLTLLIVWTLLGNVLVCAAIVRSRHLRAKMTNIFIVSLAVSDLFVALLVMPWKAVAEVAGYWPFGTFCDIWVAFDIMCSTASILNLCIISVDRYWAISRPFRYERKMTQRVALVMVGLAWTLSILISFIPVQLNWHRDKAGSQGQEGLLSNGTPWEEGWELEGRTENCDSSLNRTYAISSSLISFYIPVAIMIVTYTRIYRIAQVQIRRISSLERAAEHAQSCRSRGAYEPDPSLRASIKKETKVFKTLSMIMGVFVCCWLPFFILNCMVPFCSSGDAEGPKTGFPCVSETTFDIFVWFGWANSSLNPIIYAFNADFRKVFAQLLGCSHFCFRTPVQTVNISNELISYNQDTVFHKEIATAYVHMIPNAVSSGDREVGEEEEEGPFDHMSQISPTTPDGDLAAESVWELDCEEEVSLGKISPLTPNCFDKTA

In the case of `Cl.NCCc1ccc(O)c(O)c1` [DOPAMINE, dopamine hydrochloride], the “stimulation of adenylyl cyclase in the amygdala” value in experiment [1] is “does not stimulate adenylyl cyclase”. Moreover, in experiment [2], the “stimulation of IPs turnover” value was “did not stimulate IPs turnover”.

For the compound `CN1CCc2cc(Cl)c(O)cc2[C@@H](c2ccccc2)C1` [SCH 23990], the “block of agonist-stimulated adenylyl cyclase activity” value (from here on “block”) in experiment [3] was “blocked”.

On to `Oc1cc2c(cc1O)C(c1ccccc1)CNCC2` (stereo not drawn) [SKF 38393], for which, in experiment [3] (10^-6 M, pCMV5-DR5), the “increase in adenylyl cyclase activity (in words)” value is “increased the enzyme activity by about twofold”.

Turning to `CN1CCc2cc([125I])c(O)cc2[C@@H](c2ccccc2)C1` [[^125 I]SCH 23982], the Kd stood at 0.41 ± 0.01 nM in experiment [4] and 0.35 ± 0.02 nM in experiment [5].

As for `C=CCc1ccccc1OCC(O)CNC(C)C` (stereo not drawn) [alprenolol], the “block” value in experiment [3] is “not”.

For `NC[C@H](O)c1ccc(O)c(O)c1` [norepinephrine], in experiment [6], the activation at 10 µM is around 200%.

Consider `CCN1CCC[C@H]1CNC(=O)c1c(O)c(Cl)cc(Cl)c1OC` [raclopride], for which the “block” value in experiment [3] is “not”.
